Experimental data as given in patent US9610274B2, “Methods for treating bipolar disorder” (priority 2010, dated 2017).
Where two headings read alike, the source gives them in different places.

Tests used:
[1] = tested on: adult human subjects with moderate or severe major depression without psychotic features; test: Randomized double-blind placebo- and active-controlled 6-week study in major depression; format: in vivo; settings: for MADRS response rate / MADRS remission rate: Week 6; for MADRS response rate: >50% improvement in MADRS total score; for MADRS remission rate: MADRS total score less than 9; for 3 Atypical items of HAM-D 31, mean result / CGI-S score, mean result / MADRS core mood subscale, mean result / MADRS sadness (Items 1 + 2), mean result / MADRS total score (primary), mean result / MADRS total score, mean result: change from baseline at Week 6; for ABCD questionnaire items with statistically significant superiority to placebo: post hoc analyses, of 51 items, U.S. sites
Protocol: The primary objective of this study was to determine the efficacy of 2 target doses of test compound (200 and 400 mg/day) in comparison with placebo during 6 weeks of treatment in adult human subjects with moderate or severe major depression without psychotic features. An active comparator (paroxetine) was included to assist in distinguishing a negative study from a failed study. In addition, an exit interview was intended to gather information on unexpected benefits of the test compound in order to refine the clinical development program. […] In addition, positive effects of the test compound on ratings of physical energy/fitness, reduction in sadness or depression and mental energy or motivation.
This was a randomized, double-blind, parallel-group, active, and placebo-controlled, multicenter study conducted in the U.S. (23 centers) and Canada (4 centers). There were 2 phases: a pretreatment phase (screening/washout and a baseline visit) and a 6-week, double-blind treatment phase. Paroxetine, a positive control, was included to evaluate assay sensitivity. After washout (if needed) of prohibited substances, subjects were randomly assigned (1:1:1:1) to receive the test compound titrated to a target dose of 200 mg/day or 400 mg/day, matching placebo, or a fixed dose (20 mg/day) of paroxetine. Study drug was given twice daily for 6 weeks. Efficacy and safety were assessed weekly during the double-blind phase. Subjects completing the study underwent an Exit Interview (“Your Health and Well-Being”) and completed an Assessment of Benefits of Clinical-trial Drug-treatment (ABCD) questionnaire (U.S. sites only).

[2] = tested on: rats; test: Forced swimming test in rats; format: in vivo; settings: 4 hours post-treatment
Protocol: Male CD-1 mice (16-24 g) and male Wistar rats (90-125 g) were utilized in these experiments. The test compound (10, 15 and 30 mg/kg) was dissolved in physiological saline (0.9%) and administered orally in a volume of 1 mL/100 g body weight.
Mice and rats were placed in glass cylinders of 1000 ml beakers (height 14 cm, diameter 11.5 cm) and 4000 ml beakers (height 24.5 cm, diameter 18.0 cm), respectively, containing water (25 degrees Celsius) up to a height of 9.0 cm for mice and 19.0 cm for rats. […] Immobility was defined as lack of movement, such as floating in the water with little or no movement of hind legs. Duration of immobility was timed with a stopwatch and recorded. In some experiments, mice or rats were allowed to swim for 6 or 10 minutes, respectively, one day prior to the forced swimming experiment.
In the single dose test, mice or rats were given test compound or 0.9% NaCl and placed in glass cylinders 1 hour or 4 hours post-treatment, respectively. In the multiple dose experiments, mice were dosed twice a day for 3 days and given an additional dose on Day 4. In addition, the mice were placed in the glass cylinders containing water at 25 degrees Celsius and allowed to swim for six minutes on Day 3. Statistical evaluation was performed using a computer program (The Pharmacological Calculation System of Tallarida and Murray (#425475-04-7-1992)) based on probit analysis. Statistical significance was determined using Student's t-test at a P value of <0.05.

[3] = tested on: mice; test: Forced swimming test in mice; format: in vivo; settings: for ED50: Mus musculus
[4] = target: T1, hNET (human norepinephrine transporter) (Homo sapiens, UniProt P23975); format: binding; settings: HEK-hNET cells; mean ± SEM
T1 construct: expressed in transfected cells; host or cells: HEK293 (ATCC), geneticin-selected clonal cells

[5] = target: T2, hSERT (human serotonin transporter) (Homo sapiens, UniProt P31645); test: Inhibition of [3H]serotonin uptake in HEK-hSERT cells; format: cell-based
T2 construct: expressed in transfected cells; host or cells: HEK293 (ATCC), puromycin-selected clonal cells

[6] = target: T2, hSERT (human serotonin transporter); test: Inhibition of [125I]RTI-55 binding to hSERT in HEK293 cell membranes; settings: HEK-hSERT cells; mean ± SEM
[7] = tested on: isolated mice; test: Isolation-induced fighting in mice; format: in vivo; settings: Mus musculus
Protocol: Male CD-1 mice (15-20 g) were utilized in this experiment. The test compound (15, 22 and 30 mg/kg) was dissolved in physiological saline (0.9%) and administered orally (PO) in a volume of 1 mL/100 g body weight.
Mice were isolated for up to 8 weeks in individual solid walled wire cages (24×20×17 cm). The animals were not disturbed except to replenish food. Aggression was tested by placing an intruder mouse into the home cage of the resident animal. Aggression was characterized by an attack on the “intruder” during a three minute period. […] Only those resident mice displaying fighting behavior were selected. […] ED50 values were calculated from the percent inhibition of fighting in computer program based on probit analysis.

[8] = target: T3, hDAT (human dopamine transporter) (Homo sapiens, UniProt Q01959); test: Inhibition of [125I]RTI-55 binding to hDAT in HEK293 cell membranes; settings: HEK-hDAT cells; mean ± SEM
T3 construct: expressed in transfected cells; host or cells: HEK293 (ATCC), puromycin-selected clonal cells

[9] = Per-Protocol (LOCF), TC 200 mg/day
[10] = Per-Protocol (LOCF), TC 400 mg/day

T2 sequence (P31645 whole entry): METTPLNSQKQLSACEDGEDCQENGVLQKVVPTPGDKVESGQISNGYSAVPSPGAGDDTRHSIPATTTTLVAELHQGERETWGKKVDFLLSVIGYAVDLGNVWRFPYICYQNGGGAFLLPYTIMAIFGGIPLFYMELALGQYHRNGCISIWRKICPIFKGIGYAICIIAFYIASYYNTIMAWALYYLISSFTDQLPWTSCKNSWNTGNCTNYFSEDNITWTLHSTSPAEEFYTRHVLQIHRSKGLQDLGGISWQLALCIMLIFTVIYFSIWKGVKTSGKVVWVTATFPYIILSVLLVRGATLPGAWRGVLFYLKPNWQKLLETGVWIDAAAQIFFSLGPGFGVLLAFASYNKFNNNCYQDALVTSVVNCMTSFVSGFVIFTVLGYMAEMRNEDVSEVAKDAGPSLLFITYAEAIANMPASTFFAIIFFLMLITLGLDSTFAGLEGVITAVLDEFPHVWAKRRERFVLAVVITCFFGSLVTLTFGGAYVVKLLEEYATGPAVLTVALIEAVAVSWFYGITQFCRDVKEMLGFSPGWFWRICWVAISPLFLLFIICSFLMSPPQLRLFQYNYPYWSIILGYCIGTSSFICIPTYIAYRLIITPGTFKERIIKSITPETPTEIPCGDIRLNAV
T3 sequence (Q01959 whole entry): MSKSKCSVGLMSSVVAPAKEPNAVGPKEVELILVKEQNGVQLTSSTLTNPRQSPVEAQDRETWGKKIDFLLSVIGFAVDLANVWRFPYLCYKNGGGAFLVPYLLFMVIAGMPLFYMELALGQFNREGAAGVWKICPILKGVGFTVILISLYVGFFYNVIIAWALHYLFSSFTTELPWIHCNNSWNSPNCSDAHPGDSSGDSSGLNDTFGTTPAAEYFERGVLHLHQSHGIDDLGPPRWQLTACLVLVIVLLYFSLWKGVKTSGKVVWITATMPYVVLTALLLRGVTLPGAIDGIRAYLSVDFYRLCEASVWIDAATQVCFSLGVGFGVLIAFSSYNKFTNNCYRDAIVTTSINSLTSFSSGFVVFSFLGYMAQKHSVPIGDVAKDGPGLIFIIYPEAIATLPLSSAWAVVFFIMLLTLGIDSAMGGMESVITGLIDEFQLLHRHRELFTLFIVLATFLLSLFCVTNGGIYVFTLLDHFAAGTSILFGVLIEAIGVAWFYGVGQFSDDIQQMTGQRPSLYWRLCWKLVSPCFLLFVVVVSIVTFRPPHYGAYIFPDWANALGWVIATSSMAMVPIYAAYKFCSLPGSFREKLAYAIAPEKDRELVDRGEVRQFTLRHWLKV
T1 sequence (P23975 whole entry): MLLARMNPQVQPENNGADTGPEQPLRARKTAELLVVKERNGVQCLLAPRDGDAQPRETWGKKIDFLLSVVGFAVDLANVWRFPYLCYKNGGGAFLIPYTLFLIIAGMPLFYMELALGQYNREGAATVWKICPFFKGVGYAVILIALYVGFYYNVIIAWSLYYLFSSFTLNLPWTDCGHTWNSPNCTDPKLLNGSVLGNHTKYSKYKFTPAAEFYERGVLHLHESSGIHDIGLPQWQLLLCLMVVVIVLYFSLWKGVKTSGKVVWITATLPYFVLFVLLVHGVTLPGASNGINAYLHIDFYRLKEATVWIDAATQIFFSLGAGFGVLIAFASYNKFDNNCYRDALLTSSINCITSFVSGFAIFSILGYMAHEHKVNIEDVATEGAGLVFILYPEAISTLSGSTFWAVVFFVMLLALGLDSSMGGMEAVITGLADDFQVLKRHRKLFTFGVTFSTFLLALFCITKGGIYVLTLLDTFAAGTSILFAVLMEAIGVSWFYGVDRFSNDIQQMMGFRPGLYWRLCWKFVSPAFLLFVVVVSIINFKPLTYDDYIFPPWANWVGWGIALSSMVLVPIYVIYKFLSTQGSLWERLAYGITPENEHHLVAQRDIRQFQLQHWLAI

Structure (SMILES): NC(=O)OC[C@H](N)Cc1ccccc1 [test compound, O-carbamoyl-(D)-phenylalaninol]
- MADRS response rate ([1]; ITT (LOCF), TC 200 mg/day): 36%
- MADRS response rate ([1]; ITT (LOCF), TC 400 mg/day): 41%
- MADRS remission rate ([1]; ITT (LOCF), TC 200 mg/day): 15%
- MADRS remission rate ([1]; ITT (LOCF), TC 400 mg/day): 19%
- 3 Atypical items of HAM-D 31, mean result ([1]; ITT (LOCF), TC 200 mg/day): −0.4
- CGI-S score, mean result ([1]; ITT (LOCF), TC 200 mg/day): −1.2
- MADRS core mood subscale, mean result ([1]; ITT (LOCF), TC 200 mg/day): −8.6
- MADRS sadness (Items 1 + 2), mean result ([1]; ITT (LOCF), TC 200 mg/day): −3.2
- MADRS total score (primary), mean result ([1]; ITT (LOCF), TC 200 mg/day): −12.1
- 3 Atypical items of HAM-D 31, mean result ([1]; ITT (LOCF), TC 400 mg/day): −0.8
- CGI-S score, mean result ([1]; ITT (LOCF), TC 400 mg/day): −1.3
- MADRS core mood subscale, mean result ([1]; ITT (LOCF), TC 400 mg/day): −8.7
- MADRS sadness (Items 1 + 2), mean result ([1]; ITT (LOCF), TC 400 mg/day): −3.4
- MADRS total score (primary), mean result ([1]; ITT (LOCF), TC 400 mg/day): −12.4
- superiority to placebo on the primary endpoint (change from baseline at Week 6 in MADRS total score) ([1]; ITT (LOCF), test compound 200 mg and 400 mg, paroxetine 20 mg/day): Neither the 200-mg nor the 400-mg dose of the test compound was statistically significantly superior to placebo
- MADRS response rate [1, 9]: 40%
- MADRS response rate [1, 10]: 50%
- MADRS remission rate [1, 9]: 20%
- MADRS remission rate [1, 10]: 29%
- CGI-S score, mean result [1, 9]: −1.5
- MADRS total score, mean result [1, 9]: −14.8
- CGI-S score, mean result [1, 10]: −1.6
- MADRS total score, mean result [1, 10]: −15.0
- superiority to placebo on the primary endpoint, men ([1]; men, test compound 200 mg): nominally statistically significant superiority to placebo
- ABCD questionnaire items with statistically significant superiority to placebo ([1]; test compound 200 mg): 14 items
- ABCD questionnaire items with statistically significant superiority to placebo ([1]; test compound 400 mg): 8 items
- superiority to placebo on the primary endpoint, women ([1]; women, test compound 400 mg): statistically significant superiority to placebo
- mean duration of immobility ([2]; 10 mg/kg, control 74 sec, not statistically significant): 62 s
- mean duration of immobility ([2]; 15 mg/kg, control 65 sec, not statistically significant): 39 s
- mean duration of immobility ([2]; 30 mg/kg, control 38 sec, significant): 9 s
- ED50 ([2]; Rattus norvegicus, single dose PO, read-out: ED50 (reduction of mean immobility time)): 18.5 mg/kg
- ED50 ([3]; multiple dosing PO (twice a day for 3 days plus a dose on Day 4), read-out: ED50 (reduction of mean immobility time)): 5.5 mg/kg
- ED50 ([3]; read-out: ED50 (50% reduction in mean immobility time), single dose PO, 1 hour post-treatment): 16.6 mg/kg
- mean duration of immobility ([3]; multiple dosing 3 mg/kg PO, control 85 sec): 63 s
- mean duration of immobility ([3]; multiple dosing 5 mg/kg PO, control 136 sec, significant): 73 s
- mean duration of immobility ([3]; multiple dosing 8 mg/kg PO, control 114 sec, significant): 39 s
- mean duration of immobility ([3]; single dose 10 mg/kg PO, control 131 sec): 101 s
- mean duration of immobility ([3]; single dose 15 mg/kg PO, control 154 sec, significant): 80 s
- mean duration of immobility ([3]; single dose 30 mg/kg PO, control 132 sec, significant): 30 s
- Hill coefficient [4]: −1.45 ± 0.34
- IC50 [5]: > 100 µM
- Hill coefficient [6]: −2.28 ± 0.05
- inhibition at 15 mg/kg ([7]; 1 h, 15 mg/kg PO, 60 min after dosing): 28%
- inhibition at 22 mg/kg ([7]; 1 h, 22 mg/kg PO, 60 min after dosing): 44%
- inhibition at 30 mg/kg ([7]; 1 h, 30 mg/kg PO, 60 min after dosing): 56%
- ED50 ([7]; PO, inhibition of isolation-induced fighting, probit analysis, read-out: ED50 (mg/kg, PO) (confidence limits)): 25.9 mg/kg
- Hill coefficient [8]: −0.77 ± 0.12
